Data published in US20050113348A1, “Vitamin D and vitamin D analogs or derivatives as new anti-hypertensive agents” (priority 2003, published 2005).

What was measured:
[1] = system: renin mRNA, As4.1-hVDR cells; experiment: Renin mRNA by Northern blot in As4.1-hVDR cells (vitamin D analog screening); type: cell-based, mouse; parameters: Relative inhibitory activity (renin suppressive activity of Gemini analogues): key to the marks not given beside the values; details: for Relative inhibitory activity (renin suppressive activity of Gemini analogues): 24 hours at 10-8, 10^-9 and 10^-10 M, renin mRNA by Northern blot, relative to 1,25-dihydroxyvitamin D3
Description: Vitamin D analogues listed in TABLE 1 were used to treat As4.1-hVDR cells at 10^−10, 10^−9 and 10^−8 M. Renin mRNA was analyzed by Northern blot. 36B4 is a control mRNA and represents a mouse acidic ribosomal phosphoprotein.
FIG. 4 is an histogram of evaluation of Gemini analogues by Northern blot analysis. The 11 Gemini compounds listed in TABLE 2 (indicated) were used to treat As4.1 hVDR cells at 10^−10, 10^−9, and 10^−8 M for 24 hours. Renin mRNA was quantitated by Northern blots. The quantitative data obtained at 10^−10 and 10^−9 M are shown in A and B. The # of each compound corresponds to the number shown in TABLE 2. E, ethanol-treated control, VD, 1,25(OH)2D3.
(§1) RNA isolation and northern blot. The kidney and liver were dissected and immediately placed into the Trizol Reagent (Invitrogen, Grand Island, N.Y.) for total RNA isolation according to the manufacturer's instruction. To determine renin or angiotensinogen mRNA expression, total RNA (20 μg/lane) was separated on a 1.2% agarose gel containing 0.6 M formaldehyde, transferred onto a Nylon membrane (MSI, Westborough, Mass.) and crosslinked in a UV crosslinker (Bio-Rad, Hercules, Calif.). Hybridization was performed as described by Li et al. (2001). Mouse renin and angiotensinogen cDNA probes were labeled with ^32P-dATP (ICN, Costa Mesa, Calif.) using the Prime-a-gene Labeling System (Promega, Madison, Wis.). After hybridization and washing, membranes were exposed to X-ray films at −80° C. for autoradiography. The relative amount of mRNA was quantitated using a Phospholmager (Molecular Dynamics, Sunnyvale, Calif.) and normalized with 36B4 mRNA.
As4.1 cell culture and transfection. As4.1 cells (ATCC, Manassas, Va.) were cultured in DMEM supplemented with 10% FBS at 37° C. and 5% CO2. For transient transfection, the cells were grown in 10-cm dishes to 50% confluence and transfected with pcDNA3.1, pcDNA-hVDR or pcDNA-PTH/PTHrPR plasmid (10 μg DNA/dish) by the standard calcium phosphate method. Twenty-four hr after transfection, the cells were treated for 24 hr with 5×10^−8 M of 1,25(OH)2D3 or ethanol in serum-free media, or with different doses of bovine PTH(1-34) as indicated. Total RNA was isolated and analyzed for renin mRNA expression by northern blot. For stable transfection, As4.1 cells were transfected with pcDNA3.1 or pcDNA-hVDR plasmid by the use of Superfect reagent (Qiagen, Valencia, Calif.) and selected with 350 μg/ml of G418 for two weeks. Individual colonies were picked, expanded and selected for VDR expression. The As4.1-hVDR stable clones were treated with different doses of 1,25(OH)2D3 for 24 hr in serum-free media, and total RNA were analyzed by northern blot to examine renin expression.

[2] = system: renin mRNA in the kidney; experiment: Renin mRNA in the kidney of treated mice (Northern blot); type: in vivo, mouse
Description: A. […] The 2 doses were given in two consecutive days at 9 am. The 5 doses were given in three consecutive days at 9 am and 7 pm for the first two days, and at 9 am on the third day. Total renal RNA was isolated 6 hr after the last injection. Renin, calbindin-D9k (CaBP-D9k) and 36B4 mRNA levels were determined by Northern blot analysis. B. Quantitation of renin mRNA levels.
(A) Blood ionized calcium levels.
As a control for vitamin D action, Calbindin-D9k stimulation was measured. Quantitative data were presented below the Northern blot gels.
Total kidney RNAs were separated on agarose gels (20 μg/lane). Membranes were hybridized sequentially with 32P-labeled renin and 36B4 cDNA probes. The relative amount of renin mRNA was quantitated after being normalized with 36B4 mRNA levels. […] (B) Quantitative results-from Northern blots in (A).
Animals and treatment. […] VDR^−/− and Gcm2^−/− mice were generated through breeding of heterozygous mice and identified by PCR with tail genomic DNA as the template, and the wild-type littermates were used as controls. […] To increase the sodium load, mice were fed the normal rodent diet supplemented with 8% NaCl for 1, 3, 5 and 7 days. […] Wild-type mice were injected (i.p.) with vehicle or 30 pmole of 1,25(OH)2D3 dissolved in propylene glycol. Mice were sacrificed by exsanguination under anesthesia and the blood was collected into ice-cold tubes for serum isolation, or into ice-cold tubes containing 50 μl of EDTA (pH 8.0) and 100 U/ml aprotinin for plasma isolation. The determination of water and food intake, as well as urine collection, were carried out by using metabolic cages.
as §1, with “To determine renin or angiotensinogen mRNA expression, total RNA (20 μg/lane) was separated on a 1.2% agarose gel containing 0.6 M formaldehyde, transferred onto a Nylon membrane (MSI, Westborough, Mass.) and crosslinked in a UV crosslinker (Bio-Rad, Hercules, Calif.). Hybridization was performed as described by Li et al. (2001).” left out

[3] = Blood ionized calcium and survival of treated mice; type: in vivo, mouse; details: for Blood calcium level: daily dose 1.5 μg/kg body weight for one week
Excerpt: Two-month old wildtype mice were fed the normal diet supplemented with 2.5% strontium chloride for 7 weeks before sacrifice. A. Northern blot analysis of renin mRNA expression in the kidney from non-treated and strontium-treated wildtype mice. Each lane represents an individual animal. B. Quantitative results of the northern analysis. C. Blood ionized calcium concentration determined at the end of the treatment (n=5 in each group). In both b and c, NT, non-treated; STR, strontium-treated, *, P<0.01 vs. NT value.
(A) Blood ionized calcium levels. Normal mice (n=5) were treated with vehicle (control), 1,25(OH)2D3 (VD3) or compound #9 at a daily dose of 1.5 μg/kg body weight for one week. […] (B) Renin mRNA levels in the kidneys of treated mice, as determined by quantitative Northern blots. *, P<0.01.
Measurement of blood and urine parameters. The concentration of blood ionized calcium was determined using a Ciba/Coming 634 Ca^++/pH analyzer (Chiron Diagnostics, East Walpole, Mass.) from 50 μl of whole blood obtained from tail snipping. Blood glucose concentrations were determined by using One Touch Sure Step test strips (Life Scan, Milpitas, Calif.). Serum intact parathyroid hormone (iPTH) was determined using a commercial ELISA kit (Immutopics, San Clemente, Calif.). The concentration of serum and urinary Na^+, K^+, and creatinine was determined by a Beckman Coulter CX5 Autoanalyzer as described by Li et al. (2001).

[4] = system: 4.1 kb renin gene promoter (Ren-1c), As4.1-hVDR cells; experiment: Renin gene promoter luciferase reporter assay in As4.1-hVDR cells; type: cell-based, mouse; details: 10^−8 M; for Suppression of renin promoter activity (luciferase): pGL-4.1 kb-Luc transfected As4.1-hVDR cells
Excerpt: As4.1-hVDR cells were transfected with pGL-4.1 kb-Luc, and treated with ethanol (E), 10^−8 M of 1,25(OH)2D3 (VD3) and different analogues as indicated.
A. Expression of hVDR mRNA in stable As4.1 clones. P, parental As4.1 cells; #57, As4.1 clone 57 stably transfected with pcDNA-hVDR; V, As4.1 clone stably transfected with the empty vector pcDNA3.1. B. Renin mRNA expression in As4.1 clone V (Vector) and #57 treated with ethanol (E) or different doses of 1,25(OH)2D3 as indicated. c. As4.1-hVDR cells (clone #57) were transfected with pGL3-Control, pGL-4.1 kb or pGL-117 bp luciferase reporter plasmid and then treated with ethanol (closed bar) or 10^−8 M of 1,25(OH)2D3 (open bar). Luciferase activity was determined 48 hr after transfection. Similar results were obtained in other stable clones.
Renin gene promoter analysis. Plasmid pR1C-4.1 CAT that contains 4.1 kb 5′-flanking sequence of mouse Ren-1^c gene (Petrovic et al. 1996) was provided by Dr. K. W. Gross (Roswell Park Cancer Institute, Buffalo, N.Y.). To generate pGL-117 bp reporter plasmid, the 123 bp renin minimal promoter fragment (+6 to −117) was released from pR1C-4.1 CAT with XbaI and BamHI and inserted into the HindIII site of pGL3-basic vector (Promega, Madison, Wis.). To generate pGL-4.1 kb reporter plasmid, the BamHI fragment (−4.1 kb to −118 bp) from pRI C-4.1 CAT was inserted into the BglII site of pGL-117 bp. To analyze the activity of renin gene promoter, As4.1-hVDR cells were transfected with the reporter plasmids by electroporation according to Shi et al. (2001) using a Bio-Rad Gene Pulser (Bio-Rad, Hercules, Calif.). pCMV-β-gal plasmid was co-transfected as an internal control. pGL3-control plasmid (Promega) was used as the positive control. The transfected cells were treated with ethanol or 10^−8 M of 1,25(OH)2D3 in Opti-MEM medium (Invitrogen) containing 2% charcoal-treated FBS four hr after electroporation, and luciferase activity was determined at 48 hr after initial transfection, using the Luciferase Assay System (Promega). Luciferase activity was normalized to β-gal activity obtained from the same electroporation, and presented as fold induction based on the basal activity of pGL3-basic empty vector determined in the same experiment.

[5] = system: renin mRNA, As4.1 cells; experiment: Renin mRNA by northern blot in As4.1 cells with or without transient transfection; type: cell-based, mouse
Excerpt: A. As4.1 cells were transiently transfected with (+) or without (−) pcDNA-hVDR plasmid containing the full-length human VDR cDNA and then. treated with 5×10^−8 M of 1,25(OH)2D3 (+) or ethanol (−) for 24 hrs. Total cellular RNA was isolated and analyzed by northern blot with renin and 36B4 cDNA probes. B. Quantitative results of northern blot analyses obtained from three independent experiments. C, ethanol-treated; VD, 1,25(OH)2D3-treated; T, transfected with pcDNA-hVDR and treated with ethanol; T/VD, transfected with pcDNA-hVDR and treated with 1,25(OH)2D3. *, P<0.001 vs. C, VD or T value. C. Renin mRNA expression in As4.1 cells (left panel), and in As4.1 cells transfected with pcDNA-PTH/PTHrPR containing the rat PTH/PTHrP receptor cDNA (right panel) and treated with bovine PTH (1-34) as indicated. −, untreated.
as §1
As4.1 cell culture and transfection. […] Total RNA was isolated and analyzed for renin mRNA expression by northern blot. […] The As4.1-hVDR stable clones were treated with different doses of 1,25(OH)2D3 for 24 hr in serum-free media, and total RNA were analyzed by northern blot to examine renin expression.

[6] = wildtype mice, normal diet with 2.5% strontium chloride for seven weeks

Compound: C=C1C(=CC=C2CCCC3(C)C2CCC3C(CCCC(C)(C)O)CCC(O)C(C)(C)O)CC(O)CC1O [#18, 1,25-dihydroxy-21(2R,3-hydroxy-3-methylbutyl)-20S-cholecalciferol]
- Relative inhibitory activity (renin suppressive activity of Gemini analogues) ([1]; As4.1-hVDR cells): ++

Compound: [Cl-].[Cl-].[Sr+2] [strontium, strontium chloride]
- Renin mRNA expression in the kidney [2, 6]: significant increase
- Blood ionized calcium [3, 6]: hypocalcemic

Compound: C=C1/C(=C\C=C2/CCC[C@]3(C)[C@@H]([C@H](C)CCCC(C)(C)O)CC[C@@H]23)C[C@@H](O)C[C@@H]1O [1,25-dihydroxyvitamin D3]
- Renin expression in stable As4.1-hVDR clones at different doses ([1]; not seen in As4.1-pcDNA cells): dose-dependent suppression
- Reduction of the level of renin mRNA ([1]; stable As4.1-hVDR cells, 10^−8 M, 24 hr): about 90%
- Time of treatment after which suppression of renin mRNA was evident ([1]; time-course studies, As4.1-hVDR cells): 6 h
- Effect on the activity of the SV40 promoter in pGL3-Control plasmid ([4]; As4.1-hVDR cells): no effect
- Reduction of the activity of the 4.1 kb renin gene promoter ([4]; pGL-4.1 kb, luciferase at 48 hr after transfection): more than 80%
- Renin mRNA expression in As4.1 cells ([5]; As4.1 cells not transfected, 5×10^−8 M): moderate reduction
- Reduction of renin mRNA expression ([5]; As4.1 cells transiently transfected with pcDNA-hVDR, 5×10^−8 M, 24 hrs): about 90%
- mRNA of renal calbindin-D9k ([2]; wildtype mice, 30 pmole/dose i.p., control vitamin D target gene): significantly increased
- Decrease of renal renin expression ([2]; wildtype mice, five doses of 30 pmole i.p. in three days): 50%
- Decrease of renal renin expression ([2]; wildtype mice, two doses of 30 pmole/dose i.p. in two consecutive days): 35%
- Deaths on day 7 ([3]; normal mice, daily dose 1.5 μg/kg body weight): 2 animals out of the 5 mice
- Blood calcium level ([3]; normal mice): severe hypercalcemia

Compound: CC(C)(O)CCCC(CCCC(C)(C)O)C1CCC2C(=CC=C3CC(O)CC(O)C3)CCCC21C (centres unmarked) [#9, 1,25-dihydroxy-21(3-methyl-3-hydroxy-butyl)-19-nor-cholecalciferol]
- Suppression of renin promoter activity (luciferase) [4]: super-potency
- Renin mRNA expression in the kidneys ([2]; normal mice, daily dose 1.5 μg/kg body weight for one week): reduced
- Reduction in renin mRNA levels in the kidneys ([2]; normal mice, daily dose 5 μg/kg body weight for one week): 54%
- Reduction in renin mRNA levels in the kidneys ([2]; normal mice, daily dose 12 μg/kg body weight for one week): 76%
- Blood calcium level ([3]; normal mice): minimal increase

Compound: PTH(1-34): bovine PTH(1-34), parathyroid hormone fragment used to treat As4.1 cells (AVSEIQFMHNLGKHLSSMERVEWLRKKLQDVHNF; UniProt P01268 32-65, looked up, fragment)
- Renin expression in PTH-treated As4.1 cells ([5]; As4.1 cells, or As4.1 transfected with pcDNA-PTH/PTHrPR, different doses): No increase in renin expression

Compound: C=C1C(=CC=C2CCCC3(C)C2CCC3C(CCCC(C)(C)O)CCCC(C)(C)O)CC(O)CC1O (centres unmarked) [#4, 1,25-dihydroxy-21(3-methyl-3-hydroxy-butyl)-cholecalciferol]
- Relative inhibitory activity (renin suppressive activity of Gemini analogues) ([1]; As4.1-hVDR cells): ++
- Suppression of renin promoter activity (luciferase) [4]: super-potency
